Non-standard residues stand in square brackets, D forms with d. hArg = N=C(N)NCCCC[C@H](N)C(=O)O; Cit = NC(=O)NCCC[C@H](N)C(=O)O
Assays:
[1] = system: murine E^k MHC class II allele; assay: simultaneous assay, E^k allele (CH27 APC, TPc9.1 T hybridoma, THMCC82-103 or PGCC81-104); assay type: cell-based
Outline: (§1)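 Read-out is [3H]TdR incorporation into HT-2 indicator cells exposed to supernatant from a 24 h primary culture. That culture combined mitomycin C-treated APC (5×10^6 cells/mL, 0.025 mg/mL mitomycin C, 20 min, 37° C), peptide, effector compound and T hybridoma, all added at once.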

[2] = target: T1, murine E^d MHC class II allele (Mus musculus, UniProt P01904+P01915); assay: simultaneous assay, E^d allele (A20 APC, G28.C9 T hybridoma, HEL106-116; HT-2 [3H]TdR readout); assay type: cell-based; design: The A20 and CH27 B cell lymphoma lines express H-2^d and H-2^k alleles, respectively; endogenous in cells; host or cells: A20 B cell lymphoma (mitomycin C-treated or paraformaldehyde-fixed)
T1 sequence (P01904 26-255): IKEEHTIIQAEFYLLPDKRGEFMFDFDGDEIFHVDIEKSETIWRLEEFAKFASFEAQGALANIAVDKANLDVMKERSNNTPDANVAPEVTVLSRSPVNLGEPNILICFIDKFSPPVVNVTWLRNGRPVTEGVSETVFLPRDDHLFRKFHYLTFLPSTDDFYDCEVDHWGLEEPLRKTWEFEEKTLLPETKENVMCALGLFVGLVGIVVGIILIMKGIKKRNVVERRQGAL
T1 sequence (P01915 27-264 limits assumed): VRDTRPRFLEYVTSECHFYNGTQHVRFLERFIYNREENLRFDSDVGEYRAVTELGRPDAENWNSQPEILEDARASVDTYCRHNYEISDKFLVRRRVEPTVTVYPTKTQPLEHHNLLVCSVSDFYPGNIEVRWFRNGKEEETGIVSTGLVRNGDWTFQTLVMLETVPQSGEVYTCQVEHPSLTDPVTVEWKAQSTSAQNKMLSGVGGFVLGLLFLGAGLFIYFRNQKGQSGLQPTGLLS
Outline: as §1

[3] = Table 14, AE peptide 64 μM, supernatant 1:4
[4] = Table 1, AE peptide 16 μM (second value), 0.075 μM THMCC82-103, supernatant 1:2
[5] = Table 1, AE peptide 64 μM (first value), 0.075 μM THMCC82-103, supernatant 1:2
[6] = Table 2, AE peptide 64 μM, 0.05 μM PGCC81-104, supernatant 1:2
[7] = Table 1, AE peptide 16 μM (second value), 0.4 μM HEL106-116, supernatant 1:4
[8] = Table 1, AE peptide 64 μM (first value), 0.4 μM HEL106-116, supernatant 1:4
[9] = Table 2, AE peptide 64 μM, 0.05 μM HEL106-116, supernatant 1:2
[10] = Table 13, AE peptide 1 μM (fourth value), supernatant 1:4
[11] = Table 13, AE peptide 4 μM (third value), supernatant 1:4
[12] = Table 13, AE peptide 16 μM (second value), supernatant 1:4
[13] = Table 13, AE peptide 64 μM (first value), supernatant 1:4
[14] = Table 4, AE109 homolog 64 μM, supernatant 1:2
[15] = Table 5, AE peptide 64 μM, supernatant 1:4, normalized to E^d by a factor of 10
[16] = Table 7, AE peptide 64 μM, supernatant 1:4, normalized by a factor of 5
[17] = Table 15, AE peptide 16 μM, supernatant 1:4
[18] = Table 16, AE peptide 4 μM, supernatant 1:8
[19] = Table 17, AE peptide 64 μM, supernatant 1:4
[20] = Table 18, AE peptide 64 μM, supernatant 1:4
[21] = Table 5, AE peptide 64 μM, supernatant 1:4
[22] = Table 7, AE peptide 64 μM, supernatant 1:4
[23] = Table 17, AE peptide 4 μM, supernatant 1:4

Ac-LRLKYPk-NH2 [AE307]
Times Baseline Response, E^k [1, 3]: 56.4 | Times Baseline Response, E^d [2, 3]: 13.2

Ac-LRMKLPKSAK-NH2 [AE110]
Times Baseline Response, E^k [1, 4]: 2.1 | Times Baseline Response, E^k [1, 5]: 7.6 | Times Baseline Response, E^k [1, 6]: 19.1 | Times Baseline Response, E^d [2, 7]: 27.8 | Times Baseline Response, E^d [2, 8]: 47.1 | Times Baseline Response, E^d [2, 9]: 23.8

Ac- (mL) RMKLPK-NH2 [AE174]
Times Baseline Response, E^k [1, 10]: 1.6 | Times Baseline Response, E^k [1, 11]: 3.1 | Times Baseline Response, E^k [1, 12]: 9.8 | Times Baseline Response, E^k [1, 13]: 35.1 | Times Baseline Response, E^k [1, 3]: 34.3 | Times Baseline Response, E^d [2, 10]: 1 | Times Baseline Response, E^d [2, 11]: 2 | Times Baseline Response, E^d [2, 12]: 40 | Times Baseline Response, E^d [2, 13]: 55 | Times Baseline Response, E^d [2, 3]: 15.9

Ac-Y M MKLPKSAK-NH2 [AE141]
Times Baseline Response, E^k [1, 14]: 1.3 | Times Baseline Response, E^d [2, 14]: 1.1

Ac-YRMK-NH2 [AE117]
Times Baseline Response, E^k [1, 4]: 10.6 | Times Baseline Response, E^k [1, 5]: 14.6 | Times Baseline Response, E^d [2, 7]: 1.0 | Times Baseline Response, E^d [2, 8]: 2.3

Ac-LRMKLPKPPK-NH2 [AE168]
Times Baseline Response, E^k [1, 5]: 4.7, n.d. | Times Baseline Response, E^d [2, 8]: 16.7, n.d.

Ac-LRMKLPK-NH2 [AE114]
Times Baseline Response, E^k [1, 4]: 3.9 | Times Baseline Response, E^k [1, 5]: 15.9 | Times Baseline Response, Ek ([1]; Table 3, AE peptide 64 μM, supernatant 1:4, values reduced relative to E^d by a factor of 10): 26.9 | Times Baseline Response, E^k [1, 15]: 26.9 | Times Baseline Response, E^k ([1]; Table 6, AE peptide 64 μM, supernatant 1:4, reduced by a factor of 5): 10.7 | Times Baseline Response, E^k [1, 16]: 10.7 | Times Baseline Response, E^k ([1]; Table 9, AE peptide 64 μM, supernatant 1:4, normalized by a factor of 5): 13.2 | Times Baseline Response, E^k ([1]; Table 11, AE peptide 64 μM, supernatant 1:4): 5.2 | Times Baseline Response, E^k ([1]; Table 12, AE peptide 1 μM (fourth value), supernatant 1:4): 2.1 | Times Baseline Response, E^k ([1]; Table 12, AE peptide 4 μM (third value), supernatant 1:4): 4.9 | Times Baseline Response, E^k ([1]; Table 12, AE peptide 16 μM (second value), supernatant 1:4): 19.3 | Times Baseline Response, E^k ([1]; Table 12, AE peptide 64 μM (first value), supernatant 1:4): 51.5 | Times Baseline Response, E^k [1, 10]: 2.1 | Times Baseline Response, E^k [1, 11]: 4.9 | Times Baseline Response, E^k [1, 12]: 19.3 | Times Baseline Response, E^k [1, 13]: 51.5 | Times Baseline Response, E^k [1, 3]: 40.3 | Times Baseline Response, E^k [1, 17]: 18.2 | Times Baseline Response, E^k [1, 18]: 1.2 | Times Baseline Response, E^k [1, 19]: 2.8 | Times Baseline Response, E^k [1, 20]: 40.3 | Times Baseline Response, E^d [2, 7]: 26.0 | Times Baseline Response, E^d [2, 8]: 39.8 | Times Baseline Response, Ed ([2]; Table 3, AE peptide 64 μM, supernatant 1:4): 10.0 | Times Baseline Response, E^d [2, 21]: 10.0 | Times Baseline Response, E^d ([2]; Table 6, AE peptide 64 μM, supernatant 1:4): 10.6 | Times Baseline Response, E^d [2, 22]: 10.6 | Times Baseline Response, E^d ([2]; Table 9, AE peptide 64 μM, supernatant 1:4): 7.7 | Times Baseline Response, E^d ([2]; Table 11, AE peptide 64 μM, supernatant 1:8): 24.1 | Times Baseline Response, E^d ([2]; Table 12, AE peptide 1 μM (fourth value), supernatant 1:2): 5 | Times Baseline Response, E^d ([2]; Table 12, AE peptide 4 μM (third value), supernatant 1:2): 62 | Times Baseline Response, E^d ([2]; Table 12, AE peptide 16 μM (second value), supernatant 1:2): 115 | Times Baseline Response, E^d ([2]; Table 12, AE peptide 64 μM (first value), supernatant 1:2): 103 | Times Baseline Response, E^d [2, 10]: 2 | Times Baseline Response, E^d [2, 11]: 18 | Times Baseline Response, E^d [2, 12]: 65 | Times Baseline Response, E^d [2, 13]: 48 | Times Baseline Response, E^d [2, 3]: 12.4 | Times Baseline Response, E^d [2, 17]: 228 | Times Baseline Response, E^d [2, 18]: 15.7 | Times Baseline Response, E^d [2, 23]: 47 | Times Baseline Response, E^d [2, 20]: 12.4

Ac-LRMK K PK-NH2 (Ac-LRMKKPK-NH2) [AE229]
Times Baseline Response, E^k [1, 16]: 16.2 | Times Baseline Response, E^d [2, 22]: 13.2

Ac-LRMK HArg PK-NH2 (Ac-LRMK[hArg]PK-NH2; SMILES CSCC[C@H](NC(=O)[C@H](CCCNC(=N)N)NC(=O)[C@H](CC(C)C)NC(C)=O)C(=O)N[C@@H](CCCCN)C(=O)N[C@@H](CCCCNC(=N)N)C(=O)N1CCC[C@H]1C(=O)N[C@@H](CCCCN)C(N)=O) [AE227]
Times Baseline Response, E^k [1, 16]: 20.5 | Times Baseline Response, E^k [1, 17]: 45.6 | Times Baseline Response, E^d [2, 22]: 8.1 | Times Baseline Response, E^d [2, 17]: 32.3

Ac-LRMK M PK-NH2 (Ac-LRMKMPK-NH2) [AE236]
Times Baseline Response, E^k [1, 16]: 16.9 | Times Baseline Response, E^d [2, 22]: 15.2

Ac-Y Y MKLPKSAK-NH2 [AE140]
Times Baseline Response, E^k [1, 14]: 0.9 | Times Baseline Response, E^d [2, 14]: 0.7

Ac-LRMKLPKPPP-NH2 [AE167]
Times Baseline Response, E^k [1, 5]: 3.4, n.d. | Times Baseline Response, E^d [2, 8]: 20.1, n.d.

Ac-L[Cit]MKNPK-NH2 [AE342]
Times Baseline Response, E^k [1, 17]: 5.4 | Times Baseline Response, E^d [2, 17]: 2.3

Ac-LR HArg KLPK-NH2 [AE197]
Times Baseline Response, E^k [1, 15]: 39.9 | Times Baseline Response, E^k [1, 18]: 1.7 | Times Baseline Response, E^d [2, 21]: 10.7 | Times Baseline Response, E^d [2, 18]: 16.3

Ac-LRMK (mL) PK-NH2 [AE175]
Times Baseline Response, E^k [1, 10]: 2.8 | Times Baseline Response, E^k [1, 11]: 6.5 | Times Baseline Response, E^k [1, 12]: 28.5 | Times Baseline Response, E^k [1, 13]: 59.0 | Times Baseline Response, E^k [1, 3]: 58.0 | Times Baseline Response, E^d [2, 10]: 1 | Times Baseline Response, E^d [2, 11]: 6 | Times Baseline Response, E^d [2, 12]: 36 | Times Baseline Response, E^d [2, 13]: 61 | Times Baseline Response, E^d [2, 3]: 15.9

Ac-Y Q MKLPKSAK-NH2 [AE138]
Times Baseline Response, E^k [1, 14]: 0.8 | Times Baseline Response, E^d [2, 14]: 0.7

Ac-LRMK Y PK-NH2 (Ac-LRMKYPK-NH2; not fully specified; printed as Ac-LRMK Y PK-NH2) [AE235]
Times Baseline Response, E^k [1, 16]: 21.8 | Times Baseline Response, E^k [1, 3]: 56.6 | Times Baseline Response, E^k [1, 17]: 47.7 | Times Baseline Response, E^k [1, 18]: 8.4 | Times Baseline Response, E^k [1, 19]: 26.8 | Times Baseline Response, E^k [1, 20]: 56.6 | Times Baseline Response, E^d [2, 22]: 14.6 | Times Baseline Response, E^d [2, 3]: 12.5 | Times Baseline Response, E^d [2, 17]: 29.4 | Times Baseline Response, E^d [2, 18]: 14.3 | Times Baseline Response, E^d [2, 23]: 51 | Times Baseline Response, E^d [2, 20]: 12.5

Ac-DSLRMKLPKSAK-NH2 [AE154]
Times Baseline Response, E^k [1, 6]: 2.2 | Times Baseline Response, E^d [2, 9]: 15.1

Ac-YRM-NH2 [AE118]
Times Baseline Response, E^k [1, 4]: 3.0 | Times Baseline Response, E^k [1, 5]: 5.6 | Times Baseline Response, E^d [2, 7]: 0.6 | Times Baseline Response, E^d [2, 8]: 1.0

Ac-Y[hArg]MKLPKSAK-NH2 [AE132]
Times Baseline Response, E^k [1, 14]: 5.5 | Times Baseline Response, E^k [1, 18]: 2.2 | Times Baseline Response, E^d [2, 14]: 1.8 | Times Baseline Response, E^d [2, 18]: 3.9

Source: patent US6835382B2, “Ii peptide therapeutics to enhance antigen presentation” (University of Massachusetts, priority 1996, dated 2004)
